Test system: KPC1 PDAC cells
Assay: qRT-PCR of senescence and SASP gene expression in KPC1 PDAC cells with EZH2 methyltransferase inhibitors
Format: cell-based, mouse
Details: GSK126 1 μM or tazemetostat 5 μM with trametinib 25 nM and palbociclib 500 nM, 8 days
Method: P values in b-c were calculated using two-tailed, unpaired Student's t-test.
Trametinib (S2673), palbociclib (S1116), and GSK126 (S7061) were purchased from Selleck chemicals for in vitro studies. Drugs for in vitro studies were dissolved in DMSO (vehicle) to yield 10 mM stock solutions and stored at −80° C. For in vitro studies, growth media with or without drugs was changed every 2-3 days.
Total RNA was isolated using the RNeasy Mini Kit (Qiagen), and complementary DNA (cDNA) was obtained using the TaqMan reverse transcription reagents (Applied Biosystems).
Flow cytometry was performed on a BD LSR II, and data were analyzed using FlowJo (TreeStar).

## CC[C@H](C)n1cc(C)c2c(C(=O)NCc3c(C)cc(C)[nH]c3=O)cc(-c3ccc(N4CCNCC4)nc3)cc21 [GSK126]
  Pro-inflammatory SASP factors and immunomodulatory cell surface proteins: induced pro-inflammatory SASP factors and immunomodulatory cell surface proteins
  Senescence-associated cell cycle arrest: without impacting senescence-associated cell cycle arrest

— US20240390379A1, “EZH2 Inhibition in Pancreatic Cancer” (University of Massachusetts, priority 2021, published 2024)
